In patent publication US12134617B1, “Pyrimido[1′6′:1,5]pyrazolo[4,3-c][1,7]naphthyridines as CK2 inhibitors” (KING FAISAL UNIVERSITY, priority 2024, dated 2024):

What was measured:
PC3 (prostate) = test: In vitro cytotoxic activity (MTT) assay, PC3; assay type: cell-based; settings: Homo sapiens, PC-3; PC3 cells, exposed for 96 hours, 50% inhibition of cell proliferation; read-out: Cytotoxicity activity IC50, PC3 (prostate)
Experimental: (§1) In Vitro Cytotoxic Activity Assay
(§2) Compounds 1-16 were screened for their in vitro cytotoxic activity utilizing a 3-(4,5-dimethyl-thiazol-2-yl)-2,5-diphenyltetrazolium bromide (MTT) assay against selected cancer human cell lines consisting of PC3 (prostate), HCT116 (colon), A375 (melanoma), H1299 (lung), MIAPaCa-2 (pancreas), HL60 (leukemia), MCF7 (breast), MDA-MB-231 (breast) (T. Mosmann, J. Immunol. Meth., 1983, 65, 55-63). The cells were cultured at 37° C. in RMPI1640 medium supplemented with 10% fetal bovine serum, 50 IU/mL penicillin, and 50 μg/mL streptomycin in a 5% CO2 incubator. All cells were sub-cultured 3 times/week by trypsinisation. Viable cells were seeded and allowed to adhere for 12 hours before a test drug was added in 96-well plates at an initial density of 1.0×10^5 cells/mL. Tumor cell lines were separately exposed to various concentrations of the tested compounds followed by incubation at a temperature of 37° C. during 96 hours inside a medium of fresh RMPI 1640. Cells were subsequently incubated at 37° C. using MTT at 0.5 mg/mL during 4 hours. After removal of supernatant, formazan crystals were dissolved in isopropanol and the optical density was measured at 570 nm. CX-4945 was used as a positive control.

HCT116 (colon) = test: In vitro cytotoxic activity (MTT) assay, HCT116; assay type: cell-based; settings: Homo sapiens, HCT-116; HCT116 cells, exposed for 96 hours, 50% inhibition of cell proliferation; read-out: Cytotoxicity activity IC50, HCT116 (colon)
Experimental: as §1, §2

A375 (melanoma) = test: In vitro cytotoxic activity (MTT) assay, A375; assay type: cell-based; settings: Homo sapiens, A-375; A375 cells, exposed for 96 hours, 50% inhibition of cell proliferation; read-out: Cytotoxicity activity IC50, A375 (melanoma)
Experimental: as §1, §2

H1299 (lung) = test: In vitro cytotoxic activity (MTT) assay, H1299; assay type: cell-based; settings: Homo sapiens, NCI-H1299; H1299 cells, exposed for 96 hours, 50% inhibition of cell proliferation; read-out: Cytotoxicity activity IC50, H1299 (lung)
Experimental: as §1, §2

MIAPaCa-2 (pancreas) = test: In vitro cytotoxic activity (MTT) assay, MIAPaCa-2; assay type: cell-based; settings: Homo sapiens, MIA PaCa-2; MIAPaCa-2 cells, exposed for 96 hours, 50% inhibition of cell proliferation; read-out: Cytotoxicity activity IC50, MIAPaCa-2 (pancreas)
Experimental: as §1, §2

HL60 (leukemia) = test: In vitro cytotoxic activity (MTT) assay, HL60; assay type: cell-based; settings: Homo sapiens, HL-60; HL60 cells, exposed for 96 hours, 50% inhibition of cell proliferation; read-out: Cytotoxicity activity IC50, HL60 (leukemia)
Experimental: as §1, §2

MCF7 (breast) = test: In vitro cytotoxic activity (MTT) assay, MCF7; assay type: cell-based; settings: Homo sapiens; MCF7 cells, exposed for 96 hours, 50% inhibition of cell proliferation; read-out: Cytotoxicity activity IC50, MCF7 (breast)
Experimental: as §1, §2

MDA-MB-231 (breast) = test: In vitro cytotoxic activity (MTT) assay, MDA-MB-231; assay type: cell-based; settings: Homo sapiens; MDA-MB-231 cells, exposed for 96 hours, 50% inhibition of cell proliferation; read-out: Cytotoxicity activity IC50, MDA-MB-231 (breast)
Experimental: as §1, §2

[1] = target: T1, recombinant human CK2 (RRββ-holoenzyme) (Homo sapiens, UniProt P68400); test: CK2 Kinase Assay (33P-ATP, filter plate); assay type: biochemical; settings: recombinant human CK2, final ATP concentration 15 μM, 10 min at 30° C.; read-out: protein kinase CK2 IC50
T1 construct: purchased Millipore
Experimental: Evaluation of Inhibitory Activity on Protein Kinase CK2
CK2 Kinase Assay was conducted using the protocol as described in Pierre F. et al; J. Med. Chem. 2011, 54, 635-654. The tested compounds in aqueous solution were added at a volume of 10 μL to a reaction mixture comprising 10 μL of assay dilution buffer (ADB; 20 mM MOPS, pH 7.2, 25 mM β-glycerol phosphate, 5 mM EGTA, 1 mM sodium orthovanadate, and 1 mM dithiothreitol), 10 μL of substrate peptide (RRRDDDSDDD, dissolved in ADB at a concentration of 1 mM), 10 μL of recombinant human CK2 (RRββ-holoenzyme, 25 ng dissolved in ADB; Millipore). Reactions were initiated by the addition of 10 μL of ATP solution (90% 75 mMMgCl2, 75 μM ATP (final ATP concentration: 15 μM) dissolved in ADB; 10% [γ-33P] ATP (stock 1mCi/100 μL; 3000 Ci/mmol (Perkin-Elmer) and maintained for 10 min at 30° C. The reactions were quenched with 100 μL of 0.75% phosphoric acid and then transferred to and filtered through a phosphor cellulose filter plate (Millipore). After washing each well five times with 0.75% phosphoric acid, the plate was dried under vacuum for 5 min and, following the addition of 15 μL of scintillation fluid to each well, the residual radioactivity was measured using a Wallac luminescence counter. The IC50 values were derived from eight concentrations of test inhibitors.

T1 sequence (P68400 whole entry): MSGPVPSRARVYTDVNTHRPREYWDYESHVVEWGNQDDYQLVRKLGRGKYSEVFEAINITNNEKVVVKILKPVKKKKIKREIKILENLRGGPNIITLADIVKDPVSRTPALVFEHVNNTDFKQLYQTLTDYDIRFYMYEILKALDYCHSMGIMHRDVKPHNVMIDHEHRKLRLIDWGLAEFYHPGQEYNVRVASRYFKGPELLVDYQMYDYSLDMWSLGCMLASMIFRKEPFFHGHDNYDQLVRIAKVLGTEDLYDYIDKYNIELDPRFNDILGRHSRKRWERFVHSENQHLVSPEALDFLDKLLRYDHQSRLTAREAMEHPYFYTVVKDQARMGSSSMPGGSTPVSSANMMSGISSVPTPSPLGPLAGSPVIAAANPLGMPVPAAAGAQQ
T1 sequence (P67870 whole entry partner): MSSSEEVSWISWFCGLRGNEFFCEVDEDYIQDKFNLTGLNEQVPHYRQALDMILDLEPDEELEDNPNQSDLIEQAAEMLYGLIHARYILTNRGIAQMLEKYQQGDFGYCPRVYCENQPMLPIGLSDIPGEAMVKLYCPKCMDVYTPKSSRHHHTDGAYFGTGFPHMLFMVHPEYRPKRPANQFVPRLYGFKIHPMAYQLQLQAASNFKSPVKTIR

Clc1cccc(Nc2nc3cnccc3c3nn4cnccc4c23)c1 [Compound 1, N-(3-chlorophenyl)pyrimido[1′,6′:1,5]pyrazolo[4,3-c][1,7]naphthyridin-6-amine]
IC50 (PC3 (prostate)): 1700 nM
IC50 (HCT116 (colon)): 1500 nM
IC50 (A375 (melanoma)): 3200 nM
IC50 (H1299 (lung)): 2600 nM
IC50 (MIAPaCa-2 (pancreas)): 1300 nM
IC50 (HL60 (leukemia)): 4400 nM
IC50 (MCF7 (breast)): 5700 nM
IC50 (MDA-MB-231 (breast)): 4800 nM
IC50 [1]: 47 nM
